Earlier results in US20060240450A1, “Genetic analysis for stratification of cancer risk” (priority 2001, published 2006).
Counter-ions that a name gives are not always drawn.

Test system: uterus and breast tissue
Conditions: preliminary clinical data (through 30 months)

O=C(c1ccc(OCCN2CCCCC2)cc1)c1c(-c2ccc(O)cc2)sc2cc(O)ccc12 [Raloxifene HCl, methanone, [6-hydroxy-2-(4-hydroxyphenyl)benzo[b]thien-3-yl]-[4-[2-(1-piperidinyl)ethoxy]phenyl]-hydrochloride]
estrogen-like effects on uterus and breast tissue: lacks estrogen-like effects
